System: PER1 gene expression in skin cells
Assay: PER1 gene expression in skin cells
Format: cell-based
From the text: A specific example includes a botanical extract from Echinacea purpurea sold by Symrise under the brand name Symfinity™ 1298 which is an extract of Echinacea purpurea which is standardized during the extraction process to contain about 3% by weight of the total extract composition of cichoric acid. Echinacea extracts from different sources will vary in cichoric acid content, and as such will yield variable results in induction of PER1 gene expression. […] Moreover, each species of Echinacea will differ in content of phenolic and cichoric acids. Ethanolic extract of the roots of Echinacea purpura will provide more cichoric acid than ethanolic extracts of Echineacea angustifolia or Echinacea pallida. The content of active ingredients in any extract is also very dependent on the method of extraction. For example, it is known that in many cases enzymatic browning during the extraction process will reduce the phenolic acid content of the resulting extract.

## O=C(/C=C/c1ccc(O)c(O)c1)O[C@@H](C(=O)O)[C@@H](O)C(=O)O [caftaric acid]
  PER1 gene expression: does not increase

Source: US10383815B2, “Method and compositions for improving selective catabolysis in cells of keratin surfaces” (ELC Management LLC, priority 2012, dated 2019)
